Data on 28 compounds can be found in patent US20170037028A1 (BAYER PHARMA AKTIENGESELLSCHAFT, priority 2013, published 2017).

The experiment deals with T1, GLUT1 (Homo sapiens, UniProt P11166).
T1 sequence (P11166 1-492): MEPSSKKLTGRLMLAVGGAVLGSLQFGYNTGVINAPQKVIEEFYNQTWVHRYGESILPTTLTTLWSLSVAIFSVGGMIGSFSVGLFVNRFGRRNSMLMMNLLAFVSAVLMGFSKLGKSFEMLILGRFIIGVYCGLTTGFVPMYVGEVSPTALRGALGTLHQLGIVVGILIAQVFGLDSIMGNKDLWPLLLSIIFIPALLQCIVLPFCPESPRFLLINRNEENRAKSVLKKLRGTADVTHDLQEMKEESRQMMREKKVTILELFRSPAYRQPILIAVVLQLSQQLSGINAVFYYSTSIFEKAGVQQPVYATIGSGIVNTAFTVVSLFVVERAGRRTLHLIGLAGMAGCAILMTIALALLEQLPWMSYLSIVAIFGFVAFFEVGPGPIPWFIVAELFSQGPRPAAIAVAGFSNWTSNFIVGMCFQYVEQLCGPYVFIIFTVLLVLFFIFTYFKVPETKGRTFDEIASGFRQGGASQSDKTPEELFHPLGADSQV
The experiment in a line: Indirect measurement of GLUT1 activity by quantification of intracellular ATP levels (glucose induced ATP increase). Format: cell-based. Further details: endogenous in cells; host or cells: DLD1 or CHO-K1. Particulars: read-out: IC50 regarding glucose induced ATP increase (GLUT1 inhibition). From the text: Indirect Measurement of GLUT1 and GLUT2 Activity by Quantification of Intracellular ATP Levels
It is well known that a combination of small-molecule inhibitors of mitochondrial electron transport chain and glucose catabolism synergistically suppress ATP production and impair cellular viability (Ulanovskaya et al., 2008, 2011; Liu, et al. 2001). We therefore used DLD1 or CHO-K1 cells in combination with an oxidative phosphorylation inhibitor to identify GLUT1 and GLUT2 inhibitors. Cell lines were maintained in DMEM medium supplemented with 10% FCS and 1% Penicillin-Streptomycin solution and 2% Glutamax. The cells were treated with trypsin and seeded into 384 plates at a density of 4000 cells/well. The cells were then cultured overnight in glucose free media containing 1% FCS to reduce intracellular ATP levels. […] The CellTiter-Glo® Luminescent Cell Viability Assay from Promega was then used to measure ATP Levels.
`COc1ccc(Cn2nc(C(F)(F)F)c(NC(=O)c3cc(C(N)=O)nc4cc(F)c(Cl)cc34)c2C)cc1` [Example 278, 6-chloro-7-fluoro-N^4-[1-(4-methoxybenzyl)-5-methyl-3-(trifluoromethyl)-1H-pyrazol-4-yl]quinoline-2,4-dicarboxamide]: the IC50 is 1.4 nM.

Take `Cc1c(NC(=O)c2cc(C(N)=O)nc3ccccc23)c(C(F)(F)F)nn1Cc1ccncc1C#N` [Example 288, N^4-{1-[(3-cyanopyridin-4-yl)methyl]-5-methyl-3-(trifluoromethyl)-1H-pyrazol-4-yl}quinoline-2,4-dicarboxamide]: the IC50 worked out at 40.1 nM.

In the case of `Cc1cc(Cn2nc(C(F)(F)F)c(NC(=O)c3cc(C(N)=O)nc4cc(F)c(Cl)cc34)c2C)on1` [Example 420, 6-chloro-7-fluoro-N^4-{5-methyl-1-[(3-methyl-1,2-oxazol-5-yl)methyl]-3-(trifluoromethyl)-1H-pyrazol-4-yl}quinoline-2,4-dicarboxamide], the IC50 was 4.9 nM.

For the compound `Cc1nn(Cc2ccc(C#N)cn2)c(C)c1NC(=O)c1cc(C(N)=O)nc2cc(F)c(Cl)cc12` [Example 351, 6-chloro-N^4-{1-[(5-cyanopyridin-2-yl)methyl]-3,5-dimethyl-1H-pyrazol-4-yl}-7-fluoroquinoline-2,4-dicarboxamide], the IC50 is 1.6 nM.

Consider `Cc1c(NC(=O)c2cc(C(N)=O)nc3cc(F)ccc23)c(C(F)(F)F)nn1C(C)c1ccccc1` (single isomer, unassigned) [Example 379, (R or S)-7-fluoro-N^4-[5-methyl-1-(1-phenylethyl)-3-(trifluoromethyl)-1H-pyrazol-4-yl]quinoline-2,4-dicarboxamide], for which the IC50 was determined as 862 nM.

Regarding `Cc1c(NC(=O)c2cc(C(N)=O)nc3ccccc23)c(C(=O)N(C)C)nn1Cc1ccc(F)cc1` [Example 1214], the IC50 turned out to be 622 nM.

As to `CCc1c(NC(=O)c2cc(C(N)=O)nc3cc(F)ccc23)c(C(F)(F)F)nn1Cc1ccc(C#N)cc1` [Example 315, N^4-[1-(4-cyanobenzyl)-5-ethyl-3-(trifluoromethyl)-1H-pyrazol-4-yl]-7-fluoroquinoline-2,4-dicarboxamide], the IC50 stood at 16 nM.

With `COc1cc(C(=O)Nc2c(C)nn(Cc3cccc(OC(F)(F)F)c3)c2C)c2ccccc2n1` [Example 115, N-{3,5-dimethyl-1-[3-(trifluoromethoxy)benzyl]-1H-pyrazol-4-yl}-2-methoxyquinoline-4-carboxamide], the IC50 was determined as 833 nM.

With `Cc1c(NC(=O)c2cc(C(N)=O)nc3cccc(F)c23)c(C(F)(F)F)nn1Cc1ccc(CC#N)cc1` [Example 1593], the IC50 was 1.3 nM.

Consider `Cc1cc(C#N)c2nc(C(F)(F)F)cc(C(=O)Nc3c(C)nn(Cc4ccc(F)cc4)c3C)c2c1` [Example 102, 8-cyano-N-[1-(4-fluorobenzyl)-3,5-dimethyl-1H-pyrazol-4-yl]-6-methyl-2-(trifluoromethyl)quinoline-4-carboxamide], for which the IC50 worked out at 446 nM.

In the case of `Cc1nn(Cc2ccn(C)n2)c(C)c1NC(=O)c1cc(C(F)(F)F)nc2ccc(Br)cc12` [Example 187, 6-bromo-N-{3,5-dimethyl-1-[(1-methyl-1H-pyrazol-3-yl)methyl]-1H-pyrazol-4-yl}-2-(trifluoromethyl)quinoline-4-carboxamide], the IC50 stood at 131 nM.

Turning to `Cc1c(NC(=O)c2cc(C(N)=O)nc3ccccc23)c(C(F)(F)F)nn1Cc1ccc(C#N)cc1F` [Example 302, N^4-[1-(4-cyano-2-fluorobenzyl)-5-methyl-3-(trifluoromethyl)-1H-pyrazol-4-yl]quinoline-2,4-dicarboxamide], the IC50 was 1.1 nM.

On to `Cc1cccc(Cn2nc(C(F)(F)F)c(NC(=O)c3cc(C(N)=O)nc4ccccc34)c2C)c1` [Example 1478], for which the IC50 worked out at 6.2 nM.

As to `Cc1c(NC(=O)c2cc(C(N)=O)nc3ccc(Br)cc23)c(C(F)(F)F)nn1Cc1ccc(C#N)cn1` [Example 358, 6-bromo-N^4-{1-[(5-cyanopyridin-2-yl)methyl]-5-methyl-3-(trifluoromethyl)-1H-pyrazol-4-yl}quinoline-2,4-dicarboxamide], the IC50 was found to be 1.2 nM.

As for `Cc1nn(Cc2ccc(CC(=O)N(C)C)cc2)c(C)c1NC(=O)c1cc(C(F)(F)F)nc2ccc(Br)cc12` [Example 156, 6-bromo-N-(1-{4-[2-(dimethylamino)-2-oxoethyl]benzyl}-3,5-dimethyl-1H-pyrazol-4-yl)-2-(trifluoromethyl)quinoline-4-carboxamide], the half-maximal inhibitory concentration (IC50) was determined as 354 nM.

For `Cc1nn(Cc2ccc(C(=O)NCC(F)F)cc2)c(C)c1NC(=O)c1cc(C(F)(F)F)nc2ccc(Br)cc12` [Example 1080], the IC50 is 25.8 nM.

For `CCc1nn(Cc2ccc(F)cc2)c(CC)c1NC(=O)c1cc(C(N)=O)nc2cc(F)ccc12` [Example 1385], the IC50 came to 60.7 nM.

`COc1cc(C(=O)Nc2c(C)nn(Cc3ccc(F)cc3)c2C(=O)N(C)C)c2ccccc2n1` [Example 1245]: the IC50 was determined as 1600 nM.

As to `COc1cc(C#N)ccc1Cn1nc(C(F)(F)F)c(NC(=O)c2cc(C(N)=O)nc3cccc(F)c23)c1C` [Example 1647], the IC50 was 2.7 nM.

For the compound `CC(C)c1nn(Cc2ccc(C#N)cc2)c(C(F)(F)F)c1NC(=O)c1cc(C(N)=O)nc2cc(F)ccc12` [Example 320, N^4-[1-(4-cyanobenzyl)-3-isopropyl-5-(trifluoromethyl)-1H-pyrazol-4-yl]-7-fluoroquinoline-2,4-dicarboxamide], the IC50 worked out at 8 nM.

Consider `Cc1nn(Cc2ccc(F)cc2)c(C)c1NC(=O)c1cc(C(F)(F)F)nc2cc(F)c(Cl)cc12` [Example 121, 6-chloro-7-fluoro-N-[1-(4-fluorobenzyl)-3,5-dimethyl-1H-pyrazol-4-yl]-2-(trifluoromethyl)quinoline-4-carboxamide], for which the concentration for half-maximal inhibition (IC50) worked out at 1.7 nM.

For the compound `Cc1nn(Cc2ccncn2)c(C)c1NC(=O)c1cc(C(F)(F)F)nc2ccc(Br)cc12` [Example 1416], the IC50 came to 97 nM.

In the case of `Cc1ccc2nc(C)cc(C(=O)Nc3c(C)nn(Cc4cccc(OC(F)(F)F)c4)c3C)c2c1` [Example 117, N-{3,5-dimethyl-1-[3-(trifluoromethoxy)benzyl]-1H-pyrazol-4-yl}-2,6-dimethylquinoline-4-carboxamide], the IC50 amounted to 938 nM.

On to `Cc1nn(Cc2ncccc2C#N)c(C)c1NC(=O)c1cc(C(N)=O)nc2ccc(Br)cc12` [Example 1408], for which the IC50 was found to be 4.9 nM.

`COc1ccc(Cn2nc(C)c(NC(=O)c3cc(C(N)=O)nc4cc(F)c(F)cc34)c2C)cc1F` [Example 236, 6,7-difluoro-N^4-[1-(3-fluoro-4-methoxybenzyl)-3,5-dimethyl-1H-pyrazol-4-yl]quinoline-2,4-dicarboxamide]: the IC50 was 0.4 nM.

Take `Cc1nn(Cc2ccc(C#N)cc2F)c(C)c1NC(=O)c1cc(C(N)=O)nc2cc(F)c(Cl)cc12` [Example 296, 6-chloro-N^4-[1-(4-cyano-2-fluorobenzyl)-3,5-dimethyl-1H-pyrazol-4-yl]-7-fluoroquinoline-2,4-dicarboxamide]: the IC50 worked out at 0.6 nM.

`COc1ccc(Cn2nc(C)c(NC(=O)c3cc(C(F)(F)F)nc4ccc(Br)cc34)c2C)cc1` [Example 3, 6-bromo-N-[1-(4-methoxybenzyl)-3,5-dimethyl-1H-pyrazol-4-yl]-2-(trifluoromethyl)quinoline-4-carboxamide]: the IC50 stood at 3.1 nM.

Turning to `COc1ccc(CCNC(=O)c2ccc(Cn3nc(C)c(NC(=O)c4cc(C(F)(F)F)nc5ccc(Br)cc45)c3C)cc2)cc1` [Example 1063], the IC50 came out at 16.8 nM.

As usually defined, the IC50 is the concentration that gives 50% inhibition.
